Laboratory results as given in the supplement of paper PMC5412046.
Where a name gives a salt, the structure may show the parent alone.

How the values were obtained:
SB.mhdgc-1 = assay: AC50 for growth inhibition (viability) (log10 M); higher = less potent; details: SB.mhdgc-1 (hereditary c.1380delA CDH1 gastric cancer)
Summary of the method: (§1)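 Dosing used a pintool to add 23 nL compound in DMSO to 1536 wells, each with 500 hereditary or sporadic patient-derived gastric cancer cells, across 11 threefold dilutions starting at a final 46 μM. Viability after 48 h was measured by CellTiter-Glo luminescence on a ViewLux. The log half-maximal activity concentration derives from a four-parameter fit of that viability normalised to DMSO, limited to high-quality curve classes.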

SB.msgc-1 = assay: as above; details: SB.msgc-1 (sporadic gastric cancer)
Summary of the method: as §1

CN[S+](=O)([O-])CCc1ccc2[nH]cc(C3CCN(C)CC3)c2c1 [Naratriptan hydrochloride]
AC50 for growth inhibition (log10 M) (SB.mhdgc-1): -7.08
AC50 for growth inhibition (log10 M) (SB.msgc-1): -6.83

CC1(C)CCC(=C(CN2CCN(CC2)C3=CC=C(C=C3)C(=O)N[S+]([O-])(=O)C4=CC(=C(N[C@H](CCN5CCOCC5)CSC6=CC=CC=C6)C=C4)[S+]([O-])(=O)C(F)(F)F)\C1)/C7=CC=C(Cl)C=C7 [Navitoclax]
AC50 for growth inhibition (log10 M) (SB.mhdgc-1): -6.13
AC50 for growth inhibition (log10 M) (SB.msgc-1): -5.13

COc1ccc(CCC(=O)c2c(O)cc(O[C@@H]3O[C@H](CO)[C@@H](O)[C@H](O)[C@H]3O[C@@H]3O[C@@H](C)[C@H](O)[C@@H](O)[C@H]3O)cc2O)cc1O [Neohesperidin dihydrochalcone]
AC50 for growth inhibition (log10 M) (SB.mhdgc-1): -5.28
AC50 for growth inhibition (log10 M) (SB.msgc-1): -5.18

NCC/1=C/NC(=S)N1[C@H]2CCC3=C(F)C=C(F)C=C3C2 [Nepicastat hydrochloride]
AC50 for growth inhibition (log10 M) (SB.mhdgc-1): -4.98
AC50 for growth inhibition (log10 M) (SB.msgc-1): -5.03

O=C(Nc1ccc([N+](=O)[O-])cc1Cl)c1cc(Cl)ccc1O [Niclosamide]
AC50 for growth inhibition (log10 M) (SB.mhdgc-1): -5.88
AC50 for growth inhibition (log10 M) (SB.msgc-1): -5.38

Cc1cn(-c2cc(NC(=O)c3ccc(C)c(Nc4nccc(-c5cccnc5)n4)c3)cc(C(F)(F)F)c2)cn1 [Nilotinib]
AC50 for growth inhibition (log10 M) (SB.mhdgc-1): -5.18
AC50 for growth inhibition (log10 M) (SB.msgc-1): -4.83

CC(=O)Oc1ccccc1C(=O)Nc1ncc([N+](=O)[O-])s1 [Nitazoxanide]
AC50 for growth inhibition (log10 M) (SB.mhdgc-1): -4.72
AC50 for growth inhibition (log10 M) (SB.msgc-1): -4.72

COc1ccc2c(c1OC)C(=O)O[C@H]2[C@H]1c2c(cc3c(c2OC)OCO3)CCN1C [Noscapine]
AC50 for growth inhibition (log10 M) (SB.mhdgc-1): -6.78
AC50 for growth inhibition (log10 M) (SB.msgc-1): -6.63

COC1=CC=C(C(=C1)OC(C)C)C/2=N/[C@@H]([C@@H](N2C(=O)N3CCNC(=O)C3)C4=CC=C(Cl)C=C4)C5=CC=C(Cl)C=C5 [Nutlin-3]
AC50 for growth inhibition (log10 M) (SB.mhdgc-1): -5.93
AC50 for growth inhibition (log10 M) (SB.msgc-1): -4.78

COc1cccc2cc(-c3nc(C4CCC(C(=O)O)CC4)n4ncnc(N)c34)[nH]c12 (stereo not drawn) [OSI-027]
AC50 for growth inhibition (log10 M) (SB.mhdgc-1): -7.58
AC50 for growth inhibition (log10 M) (SB.msgc-1): -5.33

C#Cc1cccc(Nc2ncnc3cc(OCCOC)c(OCCO)cc23)c1 [OSI-420]
AC50 for growth inhibition (log10 M) (SB.mhdgc-1): -6.23
AC50 for growth inhibition (log10 M) (SB.msgc-1): -6.03

COC1=CC(c2cc3ccccc3[nH]2)=N/C1=C/c1[nH]c(C)cc1C [Obatoclax]
AC50 for growth inhibition (log10 M) (SB.mhdgc-1): -5.43
AC50 for growth inhibition (log10 M) (SB.msgc-1): -5.33

CCC(CCCC)COC(=O)C(\C#N)=C(\c1ccccc1)c2ccccc2 (stereo not drawn) [Octocrylene]
AC50 for growth inhibition (log10 M) (SB.mhdgc-1): -4.88
AC50 for growth inhibition (log10 M) (SB.msgc-1): -4.88

CC(C)(F)C[C@H](N[C@@H](c1ccc(-c2ccc([S+](C)(=O)[O-])cc2)cc1)C(F)(F)F)C(=O)NC1(C#N)CC1 [Odanacatib]
AC50 for growth inhibition (log10 M) (SB.mhdgc-1): -5.38
AC50 for growth inhibition (log10 M) (SB.msgc-1): -4.88

FC1=C(C=C(C\C2=N\NC(=O)C3=C2C=CC=C3)C=C1)C(=O)N4CCN(CC4)C(=O)C5CC5 [Olaparib]
AC50 for growth inhibition (log10 M) (SB.mhdgc-1): -5.48
AC50 for growth inhibition (log10 M) (SB.msgc-1): -4.78

COc1ccc(/C=C\c2cc(OC)c(OC)c(OC)c2)cc1NC(=O)[C@H](N)CO [Ombrabulin]
AC50 for growth inhibition (log10 M) (SB.mhdgc-1): -7.78
AC50 for growth inhibition (log10 M) (SB.msgc-1): -8.38

COC[C@H](NC(=O)c1cnc(C)s1)C(=O)N[C@@H](COC)C(=O)N[C@@H](Cc1ccccc1)C(=O)[C@@]1(C)CO1 [Oprozomib]
AC50 for growth inhibition (log10 M) (SB.mhdgc-1): -6.93
AC50 for growth inhibition (log10 M) (SB.msgc-1): -6.93

Cc1[nH]c(/C=C2\C(=O)Nc3ccccc32)c(C)c1CCC(=O)O [Orantinib]
AC50 for growth inhibition (log10 M) (SB.mhdgc-1): -6.48
AC50 for growth inhibition (log10 M) (SB.msgc-1): -5.13

C=C1C(=O)[C@@]23C(CC[C@@H]1[C@H]2O)[C@@]12CO[C@]3(O)[C@@H](O)[C@@H]1C(C)(C)CC[C@@H]2O (stereo partly drawn) [Oridonin]
AC50 for growth inhibition (log10 M) (SB.mhdgc-1): -4.98
AC50 for growth inhibition (log10 M) (SB.msgc-1): -4.73

CC(=O)N(C)C1(c2ccccc2)CCN(CCC[C@]2(c3ccc(Cl)c(Cl)c3)CCCN(C(=O)c3ccccc3)C2)CC1 [Osanetant]
AC50 for growth inhibition (log10 M) (SB.mhdgc-1): -4.98
AC50 for growth inhibition (log10 M) (SB.msgc-1): -4.78

COC1=C(CC=C(C)C)C2=C(\C=C/C(=O)O2)C=C1 [Osthol]
AC50 for growth inhibition (log10 M) (SB.mhdgc-1): -5.78
AC50 for growth inhibition (log10 M) (SB.msgc-1): -5.53

O=C1[O][Pt]2([NH]C3CCCCC3[NH]2)[O]C1=O (stereo not drawn) [Oxaliplatin]
AC50 for growth inhibition (log10 M) (SB.mhdgc-1): -4.73
AC50 for growth inhibition (log10 M) (SB.msgc-1): -5.58

O=C(C=CC#Cc1cccc(N[S+](=O)([O-])c2ccccc2)c1)NO [Oxamflatin]
AC50 for growth inhibition (log10 M) (SB.mhdgc-1): -5.28
AC50 for growth inhibition (log10 M) (SB.msgc-1): -5.58

C=CCc1cccc(/C=N/NC(=O)CN2CCN(Cc3ccccc3)CC2)c1O [PAC-1]
AC50 for growth inhibition (log10 M) (SB.mhdgc-1): -5.13
AC50 for growth inhibition (log10 M) (SB.msgc-1): -5.23
